According to patent US8962844B2, “1,3,4-oxadiazole and 1,3,4-thiadiazole β-lactamase inhibitors” (priority 2012, dated 2015):
Where a name gives a salt, the structure may show the parent alone.

Columns and labels:
[1] = tested on: bacterial strains that express KPC β-lactamases; experiment: Standard BLI potentiation MIC / synergy MIC (sMIC) assays run in the presence of a β-lactam, KPC expressing strains; format: cell-based; settings: more active for at least one KPC strain and/or better spectrum of activity than Avibactam; BLI in combination with a β-lactam
Description: Unless otherwise indicated, the activity of the BLI compounds can be described by the MIC value obtained from a Synergy MIC assay or a BLI potentiation assay (e.g as described herein), both of which are run in the presence of a β-lactam.
A set of β-lactamase expressing isogenic E. coli strains was constructed by cloning a β-lactamase gene into a customized derivative of pBR322 (GenBank Accession Number J01749) and transforming the engineered plasmids into E. coli. The NdeI restriction site within the plasmid backbone of pBR322 was removed to generate pBR322 ΔNdeI. The pBR322 ΔNdeI vector itself, minus the blaTEM-1 gene, was amplified using two primers: (1) pBR-Pbla 5′-cgcatatgactettectttttcaatattattg-3, SEQ ID 1, a primer with an engineered NdeI restriction site at the 3′ end of the blaTEM-1 promoter and (2) pBR-vec-1 5′-[…]-3′, SEQ ID 2, a primer with an engineered BamHI restriction site at the 3′ end of the blaTEM-1 open reading frame. The chloramphenicol resistance gene, cat, was generated by PCR amplification from pKD3 (GenBank Accession Number AY048742) using primers with an engineered NdeI restriction site at the 5′ end (Pbla-cat 5′-[…]-3′, SEQ ID 3) and an engineered BamHI restriction site at the 3′ end (Vec-1-cat 5′-[…]-3′, SEQ ID 4) of the resistance gene. The two PCR products, pBR322 ΔNdeI and cat were ligated together generating pBR-CBST (pBR322 ΔNdeI ΔTEM-1::cat Seq. ID 5) which retains both the pBR322 tetracycline resistance cassette, tetA, and the plasmid origin of replication but the blaTEM-1 gene was replaced by the cat gene.
Using this engineering strategy a number of plasmids producing β-lactamase genes from different classes (see below) were generated using synthetic genes with an engineered NdeI restriction site at the 5′ end and BamHI restriction site at the 3′ end of each gene (GenScript). Both the synthetic β-lactamase genes and cat gene were ligated into the NdeI/BamHI sites of the pBR322 ΔNdeI PCR product and transformed into electrocompetent E. coli ElectroMax DH10B (Invitrogen/Life Technologies). E. coli DH10B harboring the recombinant plasmids were selected on LB agar (supplemented with 25 μg/mL tetracycline) and single isolated colonies were then inoculated into 5 mL LB media (supplemented with 25 μg/mL tetracycline), and incubated at 37° C. with aeration (250 rpm) for 18 hrs. The cultures were frozen back at −80° C. in 20% glycerol. The DNA sequence of the cloned β-lactamase genes was confirmed. The β-lactamase gene expression in the recombinant E. coli strains was driven by the blaTEM-1 promoter in the pBR-CBST plasmid and was characterized by MIC profiling of the E. coli recombinant strains against comparator β-lactam/BLI combinations in broth microdilution assay.
The experimental protocol was performed according to Clinical and Laboratory Standards Institute (CLSI) guidelines with modifications as described below (CLSI guidelines can be derived from the CLSI document M07-A9 published in January 2012: “Methods for Dilution Antimicrobial Susceptibility Tests for Bacteria That Grow Aerobically; Approved Standard-Ninth Edition”).
To prepare for MIC testing, frozen glycerol stocks of clinical isolates (Klebsiella pneumoniae, Eschericia coli, Enterobacter spp, Citrobacter spp, or Pseudomonas aeruginosa) were used to streak for isolated colonies on rich, non-selective, tryptic soy agar containing 5% sheep's blood (TSAB). Frozen glycerol stocks of laboratory engineered, isogenic E. coli strains, which contain cloned β-lactamase expressing plasmids were used to streak for isolated colonies on rich, selective LB agar supplemented with 25 μg/mL tetracycline to maintain the plasmid. All strains were incubated at 37° C. for 18-24 hrs.
On the day of testing, primary cultures were started by scraping off 5-10 colonies from the TSAB plates containing clinical strains or the tetracycline supplemented LB plates containing engineered strains. […]

[2] = tested on: bacterial strains that express the class D cephalosporinase OXA-15; experiment: Standard BLI potentiation MIC / synergy MIC (sMIC) assays run in the presence of a β-lactam, OXA-15 expressing strains; format: cell-based, E. coli; settings: BLI in combination with a β-lactam; comparison with Avibactam (comparator compound CCC)
Outline: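 Isogenic E. coli DH10B carrying cloned β-lactamase genes on pBR322-derived plasmid (blaTEM-1 promoter, tetracycline 25 μg/mL) tested by CLSI broth microdilution in CAMHB. Test compound and β-lactam each diluted and combined; MIC reported in presence of β-lactam.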

| Structure (SMILES) | activity and/or spectrum of activity against bacterial strains that express KPC β-lactamases, compared with Avibactam [1] | activity against bacterial strains that express the class D cephalosporinase OXA-15, compared with Avibactam [2] |
| --- | --- | --- |
| C[n+]1ccc(-c2nnc([C@@H]3CC[C@@H]4CN3C(=O)N4OS(=O)(=O)[O-])o2)cc1 [Compound 782, (2S,5R)-2-(5-(1-methylpyridin-1-ium-4-yl)-1,3,4-oxadiazol-2-yl)-7-oxo-1,6-diazabicyclo[3.2.1]octan-6-yl sulfate] | more active than Avibactam | more active than Avibactam |
| O=C1N2C[C@@H](CC[C@H]2c2nnc(C3CCNC3)o2)N1OS(=O)(=O)O (stereo partly drawn) [Compound 710, (2S,5R)-7-oxo-2-(5-(pyrrolidin-3-yl)-1,3,4-oxadiazol-2-yl)-1,6-diazabicyclo[3.2.1]octan-6-yl hydrogen sulfate] | more active than Avibactam | more active than Avibactam |
| N=C(N)Nc1nnc([C@@H]2CC[C@@H]3CN2C(=O)N3OS(=O)(=O)O)o1 [Compound 738, (2S,5R)-2-(5-guanidino-1,3,4-oxadiazol-2-yl)-7-oxo-1,6-diazabicyclo[3.2.1]octan-6-yl hydrogen sulfate] | more active than Avibactam | more active than Avibactam |
| O=C1N2C[C@@H](CC[C@H]2c2nnc([C@@H]3CCNC3)o2)N1OS(=O)(=O)O [Compound 759, (2S,5R)-7-oxo-2-(5-((R)-pyrrolidin-3-yl)-1,3,4-oxadiazol-2-yl)-1,6-diazabicyclo[3.2.1]octan-6-yl hydrogen sulfate] | more active than Avibactam | more active than Avibactam |
| N=C(N)NCCc1nnc([C@@H]2CC[C@@H]3CN2C(=O)N3OS(=O)(=O)O)o1 [Compound 705, (2S,5R)-2-(5-(2-guanidinoethyl)-1,3,4-oxadiazol-2-yl)-7-oxo-1,6-diazabicyclo[3.2.1]octan-6-yl hydrogen sulfate] | more active than Avibactam | more active than Avibactam |
| NCc1nnc([C@@H]2CC[C@@H]3CN2C(=O)N3OS(=O)(=O)O)o1 [Compound 702, (2S,5R)-2-(5-(aminomethyl)-1,3,4-oxadiazol-2-yl)-7-oxo-1,6-diazabicyclo[3.2.1]octan-6-yl hydrogen sulfate] | more active than Avibactam | more active than Avibactam |
| O=C1N2C[C@@H](CC[C@H]2c2nnc(CC3CCNC3)o2)N1OS(=O)(=O)O (stereo partly drawn) [Compound 764, (2S,5R)-7-oxo-2-(5-(pyrrolidin-3-ylmethyl)-1,3,4-oxadiazol-2-yl)-1,6-diazabicyclo[3.2.1]octan-6-yl hydrogen sulfate] | more active than Avibactam | more active than Avibactam |
| N[C@H]1C[C@@H](NCc2nnc([C@@H]3CC[C@@H]4CN3C(=O)N4OS(=O)(=O)O)o2)C1 [Compound 756, (2S,5R)-2-(5-((((1s,3R)-3-aminocyclobutyl)amino)methyl)-1,3,4-oxadiazol-2-yl)-7-oxo-1,6-diazabicyclo[3.2.1]octan-6-yl hydrogen sulfate] | more active than Avibactam | more active than Avibactam |
| O=C1N2C[C@@H](CC[C@H]2c2nnc(CN[C@H]3CCNC3)o2)N1OS(=O)(=O)O [Compound 765, (2S,5R)-7-oxo-2-(5-(((S)-pyrrolidin-3-ylamino)methyl)-1,3,4-oxadiazol-2-yl)-1,6-diazabicyclo[3.2.1]octan-6-yl hydrogen sulfate] | more active than Avibactam | more active than Avibactam |
| N=C(N)N[C@H]1C[C@@H](c2nnc([C@@H]3CC[C@@H]4CN3C(=O)N4OS(=O)(=O)O)o2)C1 [Compound 749, (2S,5R)-2-(5-((1s,3R)-3-guanidinocyclobutyl)-1,3,4-oxadiazol-2-yl)-7-oxo-1,6-diazabicyclo[3.2.1]octan-6-yl hydrogen sulfate] | more active than Avibactam | more active than Avibactam |
| CNCCc1nnc([C@@H]2CC[C@@H]3CN2C(=O)N3OS(=O)(=O)O)o1 [Compound 722, (2S,5R)-2-(5-(2-(methylamino)ethyl)-1,3,4-oxadiazol-2-yl)-7-oxo-1,6-diazabicyclo[3.2.1]octan-6-yl hydrogen sulfate] | more active than Avibactam | more active than Avibactam |
| CNCCCc1nnc([C@@H]2CC[C@@H]3CN2C(=O)N3OS(=O)(=O)O)o1 [Compound 734, (2S,5R)-2-(5-(3-(methylamino)propyl)-1,3,4-oxadiazol-2-yl)-7-oxo-1,6-diazabicyclo[3.2.1]octan-6-yl hydrogen sulfate] | more active than Avibactam | more active than Avibactam |
| N=C1NCC(c2nnc([C@@H]3CC[C@@H]4CN3C(=O)N4OS(=O)(=O)O)o2)N1 (stereo partly drawn) [Compound 767, (2S,5R)-2-(5-(2-iminoimidazolidin-4-yl)-1,3,4-oxadiazol-2-yl)-7-oxo-1,6-diazabicyclo[3.2.1]octan-6-yl hydrogen sulfate] | more active than Avibactam | more active than Avibactam |
| N[C@H]1C[C@@H](Cc2nnc([C@@H]3CC[C@@H]4CN3C(=O)N4OS(=O)(=O)O)o2)C1 [Compound 728, (2S,5R)-2-(5-(((1s,3R)-3-aminocyclobutyl)methyl)-1,3,4-oxadiazol-2-yl)-7-oxo-1,6-diazabicyclo[3.2.1]octan-6-yl hydrogen sulfate] | more active than Avibactam | more active than Avibactam |
| N=C(N)N[C@H]1C[C@@H](c2nnc([C@@H]3CC[C@@H]4CN3C(=O)N4OS(=O)(=O)O)s2)C1 [Compound 784, (2S,5R)-2-(5-((1s,3R)-3-guanidinocyclobutyl)-1,3,4-thiadiazol-2-yl)-7-oxo-1,6-diazabicyclo[3.2.1]octan-6-yl hydrogen sulfate] | more active than Avibactam | more active than Avibactam |
